# Reference: patent US12516046B2, “2-oxo-oxazolidine-5-carboxamides as NAV1.8 inhibitors” (Merck Sharp & Dohme LLC, priority 2020, dated 2026)
# Target: human Nav1.8 (Homo sapiens (Human), UniProt Q9Y5Y9)
# Assay: Nav1.8 Qube® Assay (automated 384-well patch-clamp)
# Type: cell-based
# Conditions: human Nav1.8 channels stably expressed in HEK 293 cells
# Description: Qube® Assay Experimental Procedure
# human Nav1.8, sequence (Q9Y5Y9 whole entry): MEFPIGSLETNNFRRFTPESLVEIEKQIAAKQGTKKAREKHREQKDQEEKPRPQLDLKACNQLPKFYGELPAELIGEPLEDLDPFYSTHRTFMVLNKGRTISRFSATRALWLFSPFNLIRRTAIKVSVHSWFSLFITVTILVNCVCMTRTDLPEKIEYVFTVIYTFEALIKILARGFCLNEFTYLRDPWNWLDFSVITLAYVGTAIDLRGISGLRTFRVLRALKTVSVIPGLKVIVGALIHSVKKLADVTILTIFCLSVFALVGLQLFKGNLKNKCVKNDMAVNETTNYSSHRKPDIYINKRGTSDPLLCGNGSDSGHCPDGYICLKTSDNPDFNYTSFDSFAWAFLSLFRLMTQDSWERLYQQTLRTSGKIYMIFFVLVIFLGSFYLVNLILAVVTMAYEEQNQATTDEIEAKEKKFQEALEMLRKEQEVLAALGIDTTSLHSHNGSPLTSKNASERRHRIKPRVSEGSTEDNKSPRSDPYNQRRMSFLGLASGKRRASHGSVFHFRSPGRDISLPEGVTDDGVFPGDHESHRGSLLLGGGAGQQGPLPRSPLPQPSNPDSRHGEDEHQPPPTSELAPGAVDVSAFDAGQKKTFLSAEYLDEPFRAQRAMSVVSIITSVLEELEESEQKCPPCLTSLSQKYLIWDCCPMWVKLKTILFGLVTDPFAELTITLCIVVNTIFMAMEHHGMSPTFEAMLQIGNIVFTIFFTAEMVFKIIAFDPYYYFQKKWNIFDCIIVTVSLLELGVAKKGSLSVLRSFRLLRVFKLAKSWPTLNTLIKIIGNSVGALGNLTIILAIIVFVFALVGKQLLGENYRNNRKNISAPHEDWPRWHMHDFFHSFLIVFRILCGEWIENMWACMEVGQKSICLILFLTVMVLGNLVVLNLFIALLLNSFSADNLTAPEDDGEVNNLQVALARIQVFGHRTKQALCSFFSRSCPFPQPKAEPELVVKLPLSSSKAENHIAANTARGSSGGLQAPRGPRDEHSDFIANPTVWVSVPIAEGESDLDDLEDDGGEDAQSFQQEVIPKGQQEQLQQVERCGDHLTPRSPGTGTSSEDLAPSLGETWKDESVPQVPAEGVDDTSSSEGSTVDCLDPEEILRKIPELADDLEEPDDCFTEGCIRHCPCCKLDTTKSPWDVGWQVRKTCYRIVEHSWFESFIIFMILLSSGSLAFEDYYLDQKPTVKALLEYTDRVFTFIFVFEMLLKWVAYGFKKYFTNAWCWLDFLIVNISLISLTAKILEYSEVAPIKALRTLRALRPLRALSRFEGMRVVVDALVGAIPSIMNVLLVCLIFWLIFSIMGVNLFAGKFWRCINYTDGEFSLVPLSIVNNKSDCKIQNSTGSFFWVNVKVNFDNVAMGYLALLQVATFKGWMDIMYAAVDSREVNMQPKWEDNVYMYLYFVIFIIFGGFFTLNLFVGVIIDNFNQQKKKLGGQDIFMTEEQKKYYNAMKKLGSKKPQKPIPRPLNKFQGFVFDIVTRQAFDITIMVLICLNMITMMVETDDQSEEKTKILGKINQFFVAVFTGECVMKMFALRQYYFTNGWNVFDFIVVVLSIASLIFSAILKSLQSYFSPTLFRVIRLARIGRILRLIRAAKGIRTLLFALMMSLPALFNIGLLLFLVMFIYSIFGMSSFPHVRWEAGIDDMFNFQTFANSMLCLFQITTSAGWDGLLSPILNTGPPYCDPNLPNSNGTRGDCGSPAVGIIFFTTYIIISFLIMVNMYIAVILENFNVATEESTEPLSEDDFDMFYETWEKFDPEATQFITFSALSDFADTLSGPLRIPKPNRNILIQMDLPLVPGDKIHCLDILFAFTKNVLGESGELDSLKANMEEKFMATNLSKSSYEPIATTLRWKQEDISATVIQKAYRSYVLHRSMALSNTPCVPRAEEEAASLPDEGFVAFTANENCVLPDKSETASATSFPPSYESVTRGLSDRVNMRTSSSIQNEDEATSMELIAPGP
row,IC50 [nM],SMILES
1,0.6,"O=C1NC[C@@H](C(=O)NC(c2ccc(Cl)cc2)c2ccc(Cl)c(C(F)(F)F)n2)O1 (single isomer, unassigned) [Example 2A, (S)—N—((R or S)-(5-chloro-6-(trifluoromethyl)pyridin-2-yl)(4-chlorophenyl)methyl)-2-oxooxazolidine-5-carboxamide]"
2,30,"O=C1NC[C@@H](C(=O)NC(c2ccc(Cl)cc2)c2ccc(Cl)c(C(F)(F)F)n2)O1 (single isomer, unassigned) [Example 2B, (S)—N—((R or S)-(5-chloro-6-(trifluoromethyl)pyridin-2-yl)(4-chlorophenyl)methyl)-2-oxooxazolidine-5-carboxamide]"
3,133,"O=C1NC[C@@H](C(=O)NC(c2ccc(Cl)cc2)C23CCC(CC2)C3)O1 (single isomer, unassigned) [Example 3A, (S)-N-((R or S)-bicyclo[2.2.1]heptan-1-yl(4-chlorophenyl)methyl)-2-oxooxazolidine-5-carboxamide]"
4,1460,"O=C1NC[C@@H](C(=O)NC(c2ccc(Cl)cc2)C23CCC(CC2)C3)O1 (single isomer, unassigned) [Example 3B, (S)-N-((R or S)-bicyclo[2.2.1]heptan-1-yl(4-chlorophenyl)methyl)-2-oxooxazolidine-5-carboxamide]"
5,28,"O=C1NC[C@@H](C(=O)NC(c2ccc(Cl)cc2)C23CC(C(F)(F)F)(C2)C3)O1 (single isomer, unassigned) [Example 4A, (S)-N-((R or S)-(4-chlorophenyl)(3-(trifluoromethyl)bicyclo[1.1.1]pentan-1-yl)methyl)-2-oxooxazolidine-5-carboxamide]"
6,312,"O=C1NC[C@@H](C(=O)NC(c2ccc(Cl)cc2)C23CC(C(F)(F)F)(C2)C3)O1 (single isomer, unassigned) [Example 4B, (S)-N-((R or S)-(4-chlorophenyl)(3-(trifluoromethyl)bicyclo[1.1.1]pentan-1-yl)methyl)-2-oxooxazolidine-5-carboxamide]"
7,16,"O=C1NC[C@@H](C(=O)NC(c2ccc(Cl)cc2)c2nc(C(F)(F)F)cs2)O1 (single isomer, unassigned) [Example 12A, (S)-N-((R or S)-(4-chlorophenyl)(4-(trifluoromethyl)thiazol-2-yl)methyl)-2-oxooxazolidine-5-carboxamide]"
8,323,"O=C1NC[C@@H](C(=O)NC(c2ccc(Cl)cc2)c2nc(C(F)(F)F)cs2)O1 (single isomer, unassigned) [Example 12B, (S)-N-((R or S)-(4-chlorophenyl)(4-(trifluoromethyl)thiazol-2-yl)methyl)-2-oxooxazolidine-5-carboxamide]"
9,58,"O=C1NC[C@@H](C(=O)NC(c2ccc(Cl)cc2)c2n[nH]c3ccccc23)O1 (single isomer, unassigned) [Example 15B, (S)-N-((R or S)-(4-chlorophenyl)(1H-indazol-3-yl)methyl)-2-oxooxazolidine-5-carboxamide]"
10,239,"O=C1NC[C@@H](C(=O)NC(c2ccc(Cl)cc2)c2ccc(F)c(C(F)F)n2)O1 (single isomer, unassigned) [Example 16A]"
11,3.3,"O=C1NC[C@@H](C(=O)NC(c2ccc(Cl)cc2)c2ccc(F)c(C(F)F)n2)O1 (single isomer, unassigned) [Example 16B]"
12,593,"O=C1NC[C@@H](C(=O)NC(c2ccc(Cl)cc2)c2c[nH]c(C(F)(F)F)n2)O1 (single isomer, unassigned) [Example 17A, (S)-N-((R or S)-(4-chlorophenyl)(2-(trifluoromethyl)-1H-imidazol-4-yl)methyl)-2-oxooxazolidine-5-carboxamide]"

# Continued, compound first:
row,SMILES,IC50 [nM]
1,"O=C1NC[C@@H](C(=O)NC(c2ccc(F)c(Cl)c2)c2ccc(F)c(OCC(F)(F)F)n2)O1 (single isomer, unassigned) [Example 1A, (S)—N—((R or S)-(3-chloro-4-fluorophenyl)(5-fluoro-6-(2,2,2-trifluoroethoxy)pyridin-2-yl)methyl)-2-oxooxazolidine-5-carboxamide]",46
2,"O=C1NC[C@@H](C(=O)NC(c2ccc(F)c(Cl)c2)c2ccc(F)c(OCC(F)(F)F)n2)O1 (single isomer, unassigned) [Example 1B, (S)—N—((R or S)-(3-chloro-4-fluorophenyl)(5-fluoro-6-(2,2,2-trifluoroethoxy)pyridin-2-yl)methyl)-2-oxo-oxazolidine-5-carboxamide]",4
3,"O=C1NC[C@@H](C(=O)NC(c2ccc(F)c(Cl)c2)c2cc(C(F)(F)F)[nH]n2)O1 (single isomer, unassigned) [Example 5A, (S)—N—((R or S)-(3-chloro-4-fluorophenyl)(5-(trifluoromethyl)-1H-pyrazol-3-yl)methyl)-2-oxooxazolidine-5-carboxamide]",4.8
4,"O=C1NC[C@@H](C(=O)NC(c2ccc(F)c(Cl)c2)c2cc(C(F)(F)F)[nH]n2)O1 (single isomer, unassigned) [Example 5B, (S)—N—((R or S)-(3-chloro-4-fluorophenyl)(5-(trifluoromethyl)-1H-pyrazol-3-yl)methyl)-2-oxooxazolidine-5-carboxamide]",265
5,"CC1NC(=O)OC1C(=O)NC(c1ccc(Cl)cc1)c1ccc(Cl)cc1 (single isomer, unassigned) [Example 6A, (cis or trans)-N-(bis(4-chlorophenyl)methyl)-4-methyl-2-oxooxazolidine-5-carboxamide]",442
6,"CC1NC(=O)OC1C(=O)NC(c1ccc(Cl)cc1)c1ccc(Cl)cc1 (single isomer, unassigned) [Example 6B, (cis or trans)-N-(bis(4-chlorophenyl)methyl)-4-methyl-2-oxooxazolidine-5-carboxamide]",1520
7,"CC1(C(=O)NC(c2ccc(Cl)cc2)c2ccc(Cl)cc2)CNC(=O)O1 (single isomer, unassigned) [Example 7A, (R or S)—N-(bis(4-chlorophenyl)methyl)-5-methyl-2-oxooxazolidine-5-carboxamide]",14900
8,"CC1(C(=O)NC(c2ccc(Cl)cc2)c2ccc(Cl)cc2)CNC(=O)O1 (single isomer, unassigned) [Example 7B, (R or S)—N-(bis(4-chlorophenyl)methyl)-5-methyl-2-oxooxazolidine-5-carboxamide]",2030
9,"O=C1NC[C@@H](C(=O)NC(COc2ccc(F)c(Cl)c2)c2ccc(F)c(Cl)c2)O1 (single isomer, unassigned) [Example 8A, (S)—N—((R or S)-2-(3-chloro-4-fluorophenoxy)-1-(3-chloro-4-fluorophenyl)ethyl)-2-oxooxazolidine-5-carboxamide]",40
10,"O=C1NC[C@@H](C(=O)NC(COc2ccc(F)c(Cl)c2)c2ccc(F)c(Cl)c2)O1 (single isomer, unassigned) [Example 8B, (S)—N—((R or S)-2-(3-chloro-4-fluorophenoxy)-1-(3-chloro-4-fluorophenyl)ethyl)-2-oxooxazolidine-5-carboxamide]",4.6
11,"O=C1NC[C@@H](C(=O)NC(c2ccc(F)c(Cl)c2F)[C@@H]2CC[C@@H](C(F)(F)F)CO2)O1 (single isomer, unassigned) [Example 9A]",7.3
12,"O=C1NC[C@@H](C(=O)NC(c2ccc(F)c(Cl)c2F)[C@@H]2CC[C@@H](C(F)(F)F)CO2)O1 (single isomer, unassigned) [Example 9B]",9.5
13,"O=C1NC[C@@H](C(=O)NC(c2ccc(F)c(Cl)c2F)[C@@H]2CC[C@@H](C(F)(F)F)CO2)O1 (single isomer, unassigned) [Example 9C]",356
14,"O=C1NC[C@@H](C(=O)NC(c2ccc(F)c(Cl)c2F)[C@@H]2CC[C@@H](C(F)(F)F)CO2)O1 (single isomer, unassigned) [Example 9D]",2420
15,"O=C1NC[C@@H](C(=O)NC(c2ccc(Cl)cc2)c2ccnc(C(F)(F)F)n2)O1 (single isomer, unassigned) [Example 11A, (S)-N-((R or S)-(4-chlorophenyl)(2-(trifluoromethyl)pyrimidin-4-yl)methyl)-2-oxooxazolidine-5-carboxamide]",23
16,"O=C1NC[C@@H](C(=O)NC(c2ccc(Cl)cc2)c2ccnc(C(F)(F)F)n2)O1 (single isomer, unassigned) [Example 11B, (S)-N-((R or S)-(4-chlorophenyl)(2-(trifluoromethyl)pyrimidin-4-yl)methyl)-2-oxooxazolidine-5-carboxamide]",399
17,"O=C1NC[C@@H](C(=O)NC(c2cncc(Cl)c2)c2ccc(F)c(Cl)c2)O1 (single isomer, unassigned) [Example 13A, (S)-N-((R or S)-(3-chloro-4-fluorophenyl)(5-chloropyridin-3-yl)methyl)-2-oxooxazolidine-5-carboxamide]",573
18,"O=C1NC[C@@H](C(=O)NC(c2cncc(Cl)c2)c2ccc(F)c(Cl)c2)O1 (single isomer, unassigned) [Example 13B, (S)-N-((R or S)-(3-chloro-4-fluorophenyl)(5-chloropyridin-3-yl)methyl)-2-oxooxazolidine-5-carboxamide]",190
19,"O=C1NC[C@@H](C(=O)NC(c2ccc(F)c(Cl)c2)c2ccc(Cl)cn2)O1 (single isomer, unassigned) [Example 14A, (S)-N-((R or S)-(3-chloro-4-fluorophenyl)(5-chloropyridin-2-yl)methyl)-2-oxooxazolidine-5-carboxamide]",21
20,"O=C1NC[C@@H](C(=O)NC(c2ccc(F)c(Cl)c2)c2ccc(Cl)cn2)O1 (single isomer, unassigned) [Example 14B, (S)-N-((R or S)-(3-chloro-4-fluorophenyl)(5-chloropyridin-2-yl)methyl)-2-oxooxazolidine-5-carboxamide]",34
21,"O=C1NC[C@@H](C(=O)NC(c2ccc(Cl)cc2)c2n[nH]c3ccccc23)O1 (single isomer, unassigned) [Example 15A, (S)-N-((R or S)-(4-chlorophenyl)(1H-indazol-3-yl)methyl)-2-oxooxazolidine-5-carboxamide]",57
